In assay [1] the test system is Hedgehog pathway activation on 10T1/2/Smo#3 cells (C3H10T1/2 cells transfected with human Smoothened receptor). The experiment in a line: Hedgehog pathway activation on 10T1/2/Smo#3 cells measured by ALP activity. It counts as cell-based. Particulars: Mus musculus, C3H 10T1/2, 10T1/2/Smo#3 cells. In outline: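 Inhibition of alkaline phosphatase induction, read fluorometrically from 4-methylumbelliferyl phosphate conversion, gave IC50 values; CellTiter-Blue tracked viability in parallel. Cells were the human Smo-transfected 10T1/2/Smo#3 pool, stimulated by 10-20% hShh conditioned medium or the Smo agonist SAG (500 nM).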

Assay [2] relates to Hedgehog pathway activation (GLi-luciferase reporter) in Shh Light II reporter cells. As to the kind of experiment: Hedgehog pathway activation on Shh Light II reporter cells measured by luciferase activity. It counts as cell-based. Particulars: Mus musculus, Shh Light II. In outline: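 Shh Light II reporter cells carrying a hedgehog-responsive GLi-luciferase reporter were stimulated either with 500 nM SAG, a direct Smoothened agonist, or with conditioned media containing human Sonic Hedgehog (hShh). Test compounds were evaluated for blocking this pathway activation, quantified by luciferase activity. Cell viability was monitored in parallel with the Celltiter-Blue® assay.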

[3] abbreviates: hShh activation, ALP activity, read-out: 10T1/2/Smo#3 ALP activity (hShh Activation).
[4] abbreviates: measured by ALP activity, read-out: ALP (IC50, inhibition of Hedgehog pathway activation).
Setting [5] is: SAG activation (500 nM SAG), read-out: Shh Light II luciferase activity (SAG activation).
Where [6] appears, read: hShh activation, read-out: Shh (IC50, inhibition of Hedgehog pathway activation).
[7] abbreviates: hShh activation, read-out: Shh Light II luciferase activity (hShh activation).

26 compounds from patent publication US8871767B2, “2-arylimidazo[1,2-B]pyridazine, 2-phenylimidazo[1,2-A]pyridine, and 2-phenylimidazo[1,2-A]pyrazine derivatives” (Hengrui (USA) Ltd., priority 2010, dated 2014) can be followed below.

Read-outs that look alike come from different tables or passages of the source.

In the case of `CC(C)(C)C(=O)Nc1cc(-c2cn3nc(Oc4ccc(F)cc4)ccc3n2)ccc1C(F)(F)F` [Example 196, N-(5-(6-(4-fluorophenoxy)imidazo[1,2-b]pyridazin-2-yl)-2-(trifluoromethyl)phenyl)pivalamide], the IC50 in assay [1] (setting [3]) was 300 to 3000 nM; in assay [1] (setting [4]), 1620 nM; in assay [2] (setting [5]), 3000 to 30000 nM; in assay [2] (setting [6]) it was 726 nM; in assay [2] (setting [7]), 300 to 3000 nM.

For the compound `CC(=O)Nc1ccccc1-c1ccc2nc(-c3ccc(C(F)(F)F)c(NC(=O)C(C)(C)C)c3)cn2n1` [Example 255, N-(5-(6-(2-acetamidophenyl)imidazo[1,2-b]pyridazin-2-yl)-2-(trifluoromethyl)phenyl)pivalamide], the IC50 in assay [1] (setting [4]) amounted to 490 nM; in assay [2] (setting [6]), 563 nM.

In the case of `CC(C)(C)C(=O)Nc1cc(-c2cn3cc(Cl)ccc3n2)ccc1C(F)(F)F` [Example 81, N-(5-(6-chloroimidazo[1,2-a]pyridin-2-yl)-2-(trifluoromethyl)phenyl)pivalamide], the IC50 in assay [1] (setting [3]) was 300 to 3000 nM; in assay [1] (setting [4]) it was 2430 nM; in assay [2] (setting [5]), 300 to 3000 nM; in assay [2] (setting [6]), 1070 nM; in assay [2] (setting [7]), 300 to 3000 nM.

As for `Cc1c(-c2ccccc2)nc2ccc(N3CCN(Cc4ccc(F)cc4)CC3)nn12` [Example 134, 6-(4-(4-fluorobenzyl)piperazin-1-yl)-3-methyl-2-phenylimidazo[1,2-b]pyridazine], the IC50 in assay [1] (setting [3]) was below 300 nM; in assay [1] (setting [4]), 232 nM; in assay [2] (setting [5]), 300 to 3000 nM; in assay [2] (setting [6]), 926 nM; in assay [2] (setting [7]) it was 300 to 3000 nM.

For the compound `CCC(C)(C)C(=O)Nc1cc(-c2cn3nc(-c4cccnc4C(F)(F)F)ccc3n2)c(F)cc1Cl` [Example 659, N-(2-chloro-4-fluoro-5-(6-(2-(trifluoromethyl)pyridin-3-yl)imidazo[1,2-b]pyridazin-2-yl)phenyl)-2,2-dimethylbutanamide], the IC50 is 75 nM in assay [1] (setting [4]) and 22 nM in assay [2] (setting [6]).

In the case of `Cc1ccc(-c2cn3nc(-c4ccc(C(N)=NO)cc4F)ccc3n2)cc1NC(=O)C(C)(C)C` [compound 567], the IC50 in assay [1] (setting [4]) amounted to 298 nM; in assay [2] (setting [6]) it was 219 nM.

Consider `CCN1CCCC1C(=O)Nc1cc(-c2cn3nc(-c4cccnc4C(F)(F)F)ccc3n2)ccc1C` (stereo not drawn) [Example 648, 1-ethyl-N-(2-methyl-5-(6-(2-(trifluoromethyl)pyridin-3-yl)imidazo[1,2-b]pyridazin-2-yl)phenyl)pyrrolidine-2-carboxamide], for which the IC50 in assay [1] (setting [4]) was 373 nM; in assay [2] (setting [6]), 400 nM.

For the compound `Cc1c(-c2ccccc2)nc2ccc(N3CCN(Cc4cccnc4)CC3)nn12` [Example 161, 3-methyl-2-phenyl-6-(4-(pyridin-3-ylmethyl)piperazin-1-yl)imidazo[1,2-b]pyridazine], the IC50 in assay [1] (setting [3]) was 300 to 3000 nM; in assay [1] (setting [4]) it was 404 nM; in assay [2] (setting [5]) it was 300 to 3000 nM; in assay [2] (setting [6]) it was 911 nM; in assay [2] (setting [7]), 300 to 3000 nM.

For `Cc1ccc(-c2cn3nc(-c4ccc(F)cc4C(F)(F)F)ccc3n2)cc1NC(=O)C(C)(C)C` [Example 396, N-(5-(6-(4-fluoro-2-(trifluoromethyl)phenyl)imidazo[1,2-b]pyridazin-2-yl)-2-methylphenyl)pivalamide], the figures for the IC50 in assay [1] (setting [4]) and in assay [2] (setting [6]) were 82 nM and 31 nM, respectively.

Regarding `CCOC(=O)COc1ccc(-c2ccc3nc(-c4ccc(C)c(NC(=O)C(C)(C)C)c4)cn3n2)c(C(F)(F)F)c1` [Example 411, ethyl 2-(4-(2-(4-methyl-3-pivalamidophenyl)imidazo[1,2-b]pyridazin-6-yl)-3-(trifluoromethyl)phenoxy)acetate], the IC50 came to 679 nM in assay [1] (setting [4]) and 251 nM in assay [2] (setting [6]).

With `CC(C)(C)C(=O)Nc1cc(-c2cn3cc(-c4ccccc4F)ncc3n2)ccc1C(F)(F)F` [Example 86, N-(5-(6-(2-fluorophenyl)imidazo[1,2-a]pyrazin-2-yl)-2-(trifluoromethyl)phenyl)pivalamide], the IC50 in assay [1] (setting [3]) was below 300 nM; in assay [1] (setting [4]), 547 nM; in assay [2] (setting [5]), 300 to 3000 nM; in assay [2] (setting [6]) it was 530 nM; in assay [2] (setting [7]), below 300 nM.

Regarding `COC(=O)CCCCCCNC(=O)c1ccc(-c2ccc3nc(-c4ccc(C)c(NC(=O)C(C)(C)C)c4)cn3n2)c(C(F)(F)F)c1` [compound 509], the IC50 in assay [1] (setting [3]) is below 300 nM; in assay [1] (setting [4]), 213 nM; in assay [2] (setting [5]), 300 to 3000 nM; in assay [2] (setting [6]) it was 158 nM; in assay [2] (setting [7]), below 300 nM.

Take `Cc1ccc(-c2cn3nc(Cl)ccc3n2)cc1NC(=O)C(C)(C)C` [Example 118, N-(5-(6-chloroimidazo[1,2-b]pyridazin-2-yl)-2-methylphenyl)pivalamide]: the IC50 is 1200 nM in assay [1] (setting [4]) and 613 nM in assay [2] (setting [6]).

As for `Cc1ccc(-c2cn3nc(N4CCC(O)C4)ccc3n2)cc1NC(=O)C(C)(C)C` (stereo not drawn) [Example 468, N-(5-(6-(3-hydroxypyrrolidin-1-yl)imidazo[1,2-b]pyridazin-2-yl)-2-methylphenyl)pivalamide], the IC50 in assay [1] (setting [4]) came out at 23 nM; in assay [2] (setting [6]) it was 44 nM.

Consider `CC(C)(C)C(=O)Nc1cc(-c2cn3nc(OCCN4CCOCC4)ccc3n2)ccc1C(F)(F)F` [Example 306, N-(5-(6-(2-morpholinoethoxy)imidazo[1,2-b]pyridazin-2-yl)-2-(trifluoromethyl)phenyl)pivalamide], for which the values for the IC50 in assay [1] (setting [4]) and in assay [2] (setting [6]) were 446 nM and 402 nM, respectively.

Take `CC(C)(C)C(=O)Nc1cc(-c2cn3nc(-c4ccc[nH]4)ccc3n2)ccc1C(F)(F)F` [Example 179, N-(5-(6-(1H-pyrrol-2-yl)imidazo[1,2-b]pyridazin-2-yl)-2-(trifluoromethyl)phenyl)pivalamide]: the IC50 worked out at 1440 nM in assay [1] (setting [4]) and 454 nM in assay [2] (setting [6]).

`CC(C)(C)C(=O)Nc1cc(-c2cn3nc(N4CCC[C@H](O)C4)ccc3n2)ccc1C(F)(F)F` [Example 358, (S)-N-(5-(6-(3-hydroxypiperidin-1-yl)imidazo[1,2-b]pyridazin-2-yl)-2-(trifluoromethyl)phenyl)pivalamide]: the IC50 in assay [1] (setting [4]) was found to be 387 nM; in assay [2] (setting [6]), 225 nM.

For the compound `Cc1ccc(-c2nc3ccc(-c4cccnc4C(F)(F)F)nn3c2C)cc1NC(=O)C(C)(C)C` [Example 353, N-(2-methyl-5-(3-methyl-6-(2-(trifluoromethyl)pyridin-3-yl)imidazo[1,2-b]pyridazin-2-yl)phenyl)pivalamide], the results for the IC50 in assay [1] (setting [4]) and in assay [2] (setting [6]) were 56 nM and 74 nM, respectively.

As for `CC(C)(C)C(=O)Nc1cc(-c2cn3nc(-c4cccnc4C(F)(F)F)ccc3n2)ccc1C(F)(F)F` [Example 292, N-(2-(trifluoromethyl)-5-(6-(2-(trifluoromethyl)pyridin-3-yl)imidazo[1,2-b]pyridazin-2-yl)phenyl)pivalamide], the IC50 in assay [1] (setting [4]) was determined as 19 nM; in assay [2] (setting [6]), 47 nM.

Turning to `C#Cc1ccc(-c2cn3nc(-c4ccccc4F)ccc3n2)cc1NC(=O)C(C)(C)C` [Example 321, N-(2-ethynyl-5-(6-(2-fluorophenyl)imidazo[1,2-b]pyridazin-2-yl)phenyl)pivalamide], the IC50 in assay [1] (setting [3]) is 300 to 3000 nM; in assay [2] (setting [5]) it was 300 to 3000 nM; in assay [2] (setting [6]) it was 323 nM; in assay [2] (setting [7]), below 300 nM.

For the compound `COc1ccc2nc(-c3ccc(C)c(NCc4ccc(F)cc4)c3)cn2n1` [Example 102, N-(4-fluorobenzyl)-5-(6-methoxyimidazo[1,2-b]pyridazin-2-yl)-2-methylaniline], the IC50 in assay [1] (setting [4]) came out at 4210 nM; in assay [2] (setting [6]), 9120 nM.

As to `Cc1ccc(-c2cn3nc(-c4cccnc4C(F)(F)F)ccc3n2)cc1NC(=O)C(C)(C)C(F)(F)F` [Example 638, 3,3,3-trifluoro-2,2-dimethyl-N-(2-methyl-5-(6-(2-(trifluoromethyl)pyridin-3-yl)imidazo[1,2-b]pyridazin-2-yl)phenyl)propanamide], the IC50 in assay [1] (setting [4]) and in assay [2] (setting [6]) was 20 nM each time.

With `CC(C)(C)C(=O)Nc1cc(-c2cn3nc(-c4cccc(C(F)(F)F)c4)ccc3n2)ccc1C(F)(F)F` [Example 223, N-(2-(trifluoromethyl)-5-(6-(3-(trifluoromethyl)phenyl)imidazo[1,2-b]pyridazin-2-yl)phenyl)pivalamide], the IC50 in assay [1] (setting [4]) was found to be 289 nM; in assay [2] (setting [6]), 97 nM.

Turning to `COc1ccc2nc(-c3ccc(Cl)c(NC(=O)CC(F)(F)F)c3)cn2n1` [Example 111, N-(2-chloro-5-(6-methoxyimidazo[1,2-b]pyridazin-2-yl)phenyl)-3,3,3-trifluoropropanamide], the results for the IC50 in assay [1] (setting [4]) and in assay [2] (setting [6]) were 9020 nM and above 10000 nM, respectively.

For the compound `COCCN(C)c1ccc2nc(-c3ccc(C(F)(F)F)c(NC(=O)C(C)(C)C)c3)cn2n1` [Example 299, N-(5-(6-((2-methoxyethyl)(methyl)amino)imidazo[1,2-b]pyridazin-2-yl)-2-(trifluoromethyl)phenyl)pivalamide], the values for the IC50 in assay [1] (setting [4]) and in assay [2] (setting [6]) were 478 nM and 338 nM, respectively.

With `COc1ccc2nc(-c3cc(NC(=O)C(C)(C)C)c(C)cc3C)cn2n1` [Example 106, N-(5-(6-methoxyimidazo[1,2-b]pyridazin-2-yl)-2,4-dimethylphenyl)pivalamide], the IC50 in assay [1] (setting [3]) was 300 to 3000 nM; in assay [1] (setting [4]), 2500 nM; in assay [2] (setting [5]), 300 to 3000 nM; in assay [2] (setting [6]), 774 nM; in assay [2] (setting [7]), 300 to 3000 nM.
